Data: article PMC4359714 (Naunyn-Schmiedeberg's Archives of Pharmacology, 2015)
pIC50: −log10 of the molar value. Like-named read-outs stand apart in the source and are kept apart here.

Experiments:
rat TRPA1 = molecular target: T1, rat TRPA1 (Rattus norvegicus, UniProt Q6RI86); experiment: Luminescence (aequorin) readout of intracellular calcium, CHO cells expressing rat TRPA1, AITC activation; assay type: cell-based
T1 construct: expressed in transfected cells; host or cells: CHO, T-REx tetracycline-inducible system (Invitrogen), co-transfected with aequorin
Text: Stable Chinese hamster ovary (CHO) cell lines expressing rat TRPA1, rat TRPM8, rat TRPV3, and human TRPV4 were generated using the tetracycline-inducible T-REx™ expression system from Invitrogen (Carlsbad, CA) and a stable CHO cell line expressing rat TRPV1 was generated using a constitutive expression system (Klionsky et al. [2007]). To enable a luminescence readout based on intracellular increase in calcium (Le Poul et al. [2002]), each cell line was also co-transfected with pcDNA3.1 plasmid containing jelly fish aequorin cDNA. Twenty-four hours before the assay, cells were seeded in 96-well plates and all TRP channel expression, except for TRPV1, was induced with 0.5 ug/mL tetracycline. […] Luminescence was measured by a CCD camera-based FLASH-luminometer built by Amgen, Inc. The following agonists were used to activate TRP channels: 0.5 uM capsaicin for TRPV1, 80 uM allyl isothiocyanate (AITC) for TRPA1, 1 uM icilin or cold buffer (12 °C) for TRPM8, 200 uM aminoethoxydiphenyl borate (2-APB) for TRPV3, and 1 uM 4α-phorbol 12,13-didecanoate (4α-PDD) for TRPV4. Antagonist IC50 values were calculated using GraphPad Prism 4.01 (GraphPad Software Inc, San Diego, CA).

SNL rats = experiment: SNL-induced tactile allodynia (von Frey, up-down method); assay type: in vivo, rat; conditions: 100 mg/kg p.o.; p > 0.05 vs vehicle (4.4 ± 1.2 g)
Procedure: SNL surgery was performed using aseptic surgical techniques and a stereomicroscope (Kim and Chung [1992]). Spinal nerve injury was caused by ligating the left L5 and L6 spinal nerves, with special care to avoid damage to the L4 spinal nerve or surrounding area. More specifically, under gaseous anesthesia with a mixture of O2 and isoflurane (3 % for induction and 2 % for maintenance), skin was excised and the longissimus lumborum muscle, part of articular processes (L4-S1), and the fascia above L6 spinal nerve were carefully removed. […]
Behavioral testing Two weeks post surgery, mechanical sensitivity was measured by determining the median 50 % foot withdrawal threshold for von Frey filaments using the up-down method (Chaplan et al. [1994]). […] To avoid possible reflex responses, only abrupt withdrawal of the foot accompanied by pain indicative behaviors (namely paw flinching, shaking, or licking for more than 2 s) was recorded as a response. […]
In vivo IC50 and IC90 estimates using WDS model data were determined by fitting a sigmoidal dose-response curve to individual animal number of WDS versus resulting plasma concentration. Behavioral and electrophysiological data are expressed as mean ± standard error of the mean (S.E.M.). Results were analyzed using one-way analysis of variance (ANOVA) with Dunnett’s multiple-comparisons post-hoc test for significance relative to vehicle. […]

T1 sequence (Q6RI86 whole entry): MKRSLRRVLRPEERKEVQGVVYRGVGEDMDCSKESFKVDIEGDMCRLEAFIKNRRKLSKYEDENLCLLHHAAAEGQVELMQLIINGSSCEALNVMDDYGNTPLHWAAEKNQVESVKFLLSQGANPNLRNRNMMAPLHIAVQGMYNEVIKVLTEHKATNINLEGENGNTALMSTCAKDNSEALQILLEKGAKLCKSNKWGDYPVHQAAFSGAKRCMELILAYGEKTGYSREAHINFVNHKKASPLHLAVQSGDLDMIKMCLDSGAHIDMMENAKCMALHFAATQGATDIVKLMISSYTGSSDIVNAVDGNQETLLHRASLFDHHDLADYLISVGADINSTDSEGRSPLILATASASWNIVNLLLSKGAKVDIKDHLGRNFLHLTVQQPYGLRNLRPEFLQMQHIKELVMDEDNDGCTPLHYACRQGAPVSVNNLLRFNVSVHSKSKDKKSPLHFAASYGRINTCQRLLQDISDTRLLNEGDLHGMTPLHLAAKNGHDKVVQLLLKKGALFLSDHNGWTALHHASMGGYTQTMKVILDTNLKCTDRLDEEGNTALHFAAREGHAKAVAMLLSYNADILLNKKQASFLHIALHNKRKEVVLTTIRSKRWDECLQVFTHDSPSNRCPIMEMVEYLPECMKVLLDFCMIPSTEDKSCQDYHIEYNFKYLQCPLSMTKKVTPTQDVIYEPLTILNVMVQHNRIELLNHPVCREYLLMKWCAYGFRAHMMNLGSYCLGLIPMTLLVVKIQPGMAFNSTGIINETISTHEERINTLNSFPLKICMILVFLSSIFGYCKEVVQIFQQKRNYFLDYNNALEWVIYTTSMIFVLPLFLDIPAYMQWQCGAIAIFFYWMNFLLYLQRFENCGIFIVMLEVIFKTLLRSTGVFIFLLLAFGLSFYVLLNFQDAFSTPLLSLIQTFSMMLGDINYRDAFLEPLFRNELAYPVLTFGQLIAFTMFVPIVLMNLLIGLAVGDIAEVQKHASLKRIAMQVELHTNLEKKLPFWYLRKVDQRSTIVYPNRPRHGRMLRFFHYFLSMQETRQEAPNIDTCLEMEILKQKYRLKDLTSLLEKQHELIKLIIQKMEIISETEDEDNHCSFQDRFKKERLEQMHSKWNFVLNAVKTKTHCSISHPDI

pIC50 (rat TRPA1; 80 uM AITC, read-out: rTRPA1 IC50): < 4.60
pIC50 (rat TRPA1; agonism, read-out: rTRPA1 agonism IC50): < 4.60
Compound: C[C@H](NC(=O)N1CCc2cccnc2[C@H]1c1ccc(C(F)(F)F)cc1)C(F)(F)F [AMG2850, (R)-8-(4-(trifluoromethyl)phenyl)-N-((S)-1,1,1-trifluoropropan-2-yl)-5,6-dihydro-1,7-naphthyridine-7(8H)-carboxamide]
tactile threshold (von Frey), SNL model (SNL rats): 5.8 ± 1.3 g
